This is an account of results in patent US5618815A, “1,9-bridged thiazolo[3,2-a]quinoline derivatives” (Bayer Aktiengesellschaft, priority 1994, dated 1997).

Holding throughout (format): cell-based
Test [1] relates to Micrococcus luteus. The test is described as follows: MIC by serial dilution (agar), Micrococcus luteus. Conditions: strain 9341, Iso-Sensitest agar, 37° C., about 20 hours. Here is the method:
(§1) The minimum inhibitory concentrations (MICs) of the compounds according to the invention were determined by serial dilution methods on Iso-Sensitest agar (Oxoid). For each test substance a series of agar plates was, prepared, which plates contained decreasing concentrations of the active compound, with twofold dilution in each case. The agar plates were inoculated with a Multipoint inoculator (Denley). Inoculation was carried out using overnight cultures of the pathogens, which had been diluted beforehand so that each inoculation point contained about 10^4 colony-forming particles. The inoculated agar plates were incubated at 37° C., and the growth of the microorganisms was read off after about 20 hours. The MIC (μg/ml) indicates the lowest concentration of active compound at which no growth-could be perceived with the naked eye. In the table below, the MICs of some of the compounds according to the invention are listed.

Test [2] has as its system Staphylococcus aureus. Kind of test: MIC by serial dilution (agar), Staphylococcus aureus. Conditions: 37° C., about 20 hours. Here is the method:
as §1

In test [3] the test system is Enterococcus faecalis. The test is described as follows: MIC by serial dilution (agar), Enterococcus faecalis. Conditions: 20 h, 37° C., about 20 hours. Here is the method: as §1
[4] abbreviates: 20 h, strain 133, Iso-Sensitest agar.
Where [5] appears, read: 20 h, strain ICB 25701, Iso-Sensitest agar.
Where [6] appears, read: 20 h, strain ICB 25768, Iso-Sensitest agar.
[7] abbreviates: ATCC29123, 20 h, strain ATCC 29123, Iso-Sensitest agar.
[8] abbreviates: strain 27 101, Iso-Sensitest agar.
The mark [9] stands for this setting: strain 9790, Iso-Sensitest agar.

Structures are written as SMILES. Values after ≈ are worked out from the molar mass of the structure shown. A value given as a limit tells only on which side of the number the result lay.

Take `CC1C=CC(N)C2CN(c3c(F)cc4c(=O)c(C(=O)O)c5scc6n5c4c3N(C)C6)CC12` (stereo not drawn) [Example 5, 8-(2-Amino-5-methyl-8-azabicyclo[4.3.0]non-3-en-8-yl)-7-fluoro-5-oxo-9,1-[(N-methylimino)methano]-5H-thiazolo-[3,2-a]quinoline-4-carboxylic acid]: the MIC in test [1] was 0.062 µg/mL (≈ 0.136 µM); in test [2] (setting [4]), at most 0.015 µg/mL; in test [2] (setting [5]) it was 0.125 µg/mL (≈ 0.275 µM); in test [2] (setting [6]) it was 0.5 µg/mL (≈ 1.1 µM); in test [2] (setting [7]), at most 0.015 µg/mL; in test [3] (setting [8]), 0.062 µg/mL (≈ 0.136 µM). Moreover, in test [3] (setting [9]), the MIC was 0.062 µg/mL (≈ 0.136 µM).
As for `CNCC1C=CCC2CN(c3c(F)cc4c(=O)c(C(=O)O)c5scc6n5c4c3N(C)C6)CC12` (stereo not drawn) [Example 7, 7-Fluoro-8-(2-methylamonomethyl-8-azabicyclo[4.3.0]non-3-en-8-yl)-5-oxo-9,1-[(N-methylimino)-methano]-5H-thiazolo-[3,2-a]quinoline-4-carboxylic acid], the MIC was 0.25 µg/mL (≈ 0.534 µM) in test [1]; at most 0.015 µg/mL in test [2] (setting [4]); 0.25 µg/mL (≈ 0.534 µM) in test [2] (setting [5]); 1 µg/mL (≈ 2.13 µM) in test [2] (setting [6]); at most 0.015 µg/mL in test [2] (setting [7]); 0.126 µg/mL (≈ 0.269 µM) in test [3] (setting [8]). For the same compound, in test [3] (setting [9]), the MIC turned out to be 0.125 µg/mL (≈ 0.267 µM).
As for `CNC1C=CCC2CN(c3c(F)cc4c(=O)c(C(=O)O)c5scc6n5c4c3N(C)C6)CC21` (stereo not drawn) [Example 3, 7-Fluoro-8-(2-methylamino-8-azabicyclo[4.3.0]non-3-en-8-yl)-5-oxo-9,1-[(N-methylimino)-methano]-5H-thiazolo-[3,2-a]quinoline-4-carboxylic acid], the MIC in test [1] was 0.125 µg/mL (≈ 0.275 µM); in test [2] (setting [4]), at most 0.015 µg/mL; in test [2] (setting [5]) it was 0.125 µg/mL (≈ 0.275 µM); in test [2] (setting [6]), 0.25 µg/mL (≈ 0.55 µM); in test [2] (setting [7]), at most 0.015 µg/mL; in test [3] (setting [8]), 0.125 µg/mL (≈ 0.275 µM). This compound registered an MIC in test [3] (setting [9]) of 0.125 µg/mL (≈ 0.275 µM).

In general, MIC refers to the lowest concentration found to suppress growth. A lower MIC goes with a more susceptible organism.
